Values quoted from earlier work, collected in publication PMC6858927 (Investigational new drugs, 2019).

System: AML cells with TKD mutants
Settings: cited from earlier work

Structure (SMILES)	sensitivity of AML cells with TKD mutants
CC(C)(C)c1cc(NC(=O)Nc2ccc(-c3cn4c(n3)sc3cc(OCCN5CCOCC5)ccc34)cc2)no1 [quizartinib]	highly resistant
CNC(=O)c1cc(Oc2ccc(NC(=O)Nc3ccc(Cl)c(C(F)(F)F)c3)cc2)ccn1 [sorafenib]	highly resistant
